{"source": "patent US20140349862A1", "about": "“METHODS AND COMPOSITIONS FOR THERAPEUTIC DRUG MONITORING AND DOSING BY POINT OF CARE PHARMACOKINETIC PROFILING” (priority 2011, published 2014)", "key": {"clinical": {"experiment": "clinical", "conditions": "human, in vivo", "source_text": "To determine whether Abraxane PK has enough variability to benefit from therapeutic drug monitoring, we performed a PK analysis using all published literature on Abraxane PK. […] J Clin Oncol. 23:7785-93.). […] It is expected that Genexol-PM and Nanoxel would have the same PK variations. The wide variability of Abraxane was rather surprising. The role of therapeutic drug monitoring is to reduce this variability. Though PK profiles for Abraxane and Taxol were similar, there are differences. These differences, however, are small and could be masked by the large variation in PK of Abraxane/Taxol.\nTo determine whether medication used in assisted reproduction, i.e. FSH (follicle stimulating hormone), we performed a PK analysis using published literature on FSH PK. […] To compare it to 5-FU data, we used variability as SD/Mean."}, "[1]": {"tested_on": "patients with metastatic colorectal cancer", "conditions": "cited from earlier work"}, "[2]": {"conditions": "initial BSA dose, blood plasma concentration measured"}}, "note": "Where two headings read alike, the source gives them in different places.", "data": [{"smiles": "O=c1[nH]cc(F)c(=O)[nH]1", "note": "[5-FU, 5-fluorouracil]", "values": [{"measurement": "AUC variability (range as % of the mean)", "setting": "clinical", "value": 138, "unit": "%"}, {"measurement": "AUC variability as SD/Mean", "setting": "clinical", "value": 34.42, "unit": "%"}, {"measurement": "AUC", "setting": "clinical; mean", "value": 9050, "unit": "ng·h/mL"}, {"measurement": "AUC", "setting": "clinical; range", "value": "3900 to 16400", "unit": "ng·h/mL"}, {"measurement": "Median survival", "setting": "[1]; BSA arm", "value": 16, "unit": "months"}, {"measurement": "Response rate", "setting": "[1]; BSA group (dosing by body surface area)", "value": 18.3, "unit": "%"}, {"measurement": "Response rate", "setting": "[1]; dose-adjusted group (PK-guided dosing)", "value": 33.6, "unit": "%"}, {"measurement": "Patients found to be over-dosed (doses adjusted downward)", "setting": "[1]; [2]", "value": "Seventeen"}, {"measurement": "Patients found to be under-dosed (doses adjusted upwards)", "setting": "[1]; [2]", "value": "Fifty eight"}, {"measurement": "Improvement of overall survival at two years", "setting": "[1]; personalized 5-FU dose management versus BSA arm", "value": 48, "unit": "%"}, {"measurement": "Median survival", "setting": "[1]; personalized 5-FU dose management", "value": 22, "unit": "months"}, {"measurement": "Grade III/IV 5-FU related toxicities", "setting": "[1]; personalized dose adjustment versus BSA dosing", "value": "significantly lower"}]}]}
